System: NCI-H929 complex spheroids, viability % test/control
Assay: Anticancer human tumor NCI-H929 cell line growth inhibition [RAS];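 note: compound exposure lasted seven days before viability was read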
Details: for IC50: curve of first compound; for viability, T/C: stronger effect = lower value
From the text: RAS pathway inhibitors in Combinations in Complex Spheroids
A high-throughput screen of multi-cell type tumor spheroids was designed to identify active combinations of RAS pathway inhibitors and targeted small molecules. Complex spheroids include a stromal component modeled by human endothelial cells (HUVEC) and fibroblasts modeled by human mesenchymal stem cells (MSCs). The concentration ranges selected for each drug and investigational agent were based upon clinically achievable concentrations if the clinical Cmax of the agent was known.
Compounds. The drugs and investigational agents: abemaciclib (NSC768073), cobimetinib (NSC768068), divarasib (GDC6063, NSC841802), docetaxel (NSC628503), GDC-1971 (RLY-1971, NSC841576), gemcitabine (NSC613327), inavolisib (NSC800729), ipatasertib (NSC767898), KB-0742 (NSC834161), MRTX-1133 (NSC836407), osimertinib (NSC779217), RMC-4630 (NSC839698), RMC-6236 (NSC851965), RMC-6291 (NSC852671), Ro-3306 (NSC812927), sapanisertib (NSC764658), SN-38 (NSC673596), staurosporine (NSC755774), SY5609 (NSC837396), and tovorafenib (DAY101, NSC766906), were obtained from the National Cancer Institute (NCI) Developmental Therapeutics Program Chemical Repository. The FDA-approved anticancer drug set is available from the NCI Developmental Therapeutics Program. […] The stock solutions were prepared in dimethyl sulfoxide (DMSO, Sigma-Aldrich, St. Louis, MO, cat. D2650) at 800-fold the tested concentration and stored at -70 degrees C prior to their use. All drugs and investigational agents were tested over a range starting from a high concentration at or near the clinical Cmax and decreasing in half-log increments. If the clinical Cmax for an agent had not been determined, the highest concentration tested was 10 microM.
Cell Culture. All cells were maintained in an incubator at 37 degrees C and 5% CO2 with 95% humidity. The PDC lines were cultured according to standard operating procedures established by the NCI PDMR. All PDCs were thawed and cultured in Matrigel-coated flasks prepared with a working solution of 1X Ham's F-12 nutrient mix, without supplementation (Invitrogen, Waltham, MA, cat. 11765054), 100 U/mL penicillin-streptomycin (Invitrogen, cat. 15140122), and 2.5% Matrigel (Corning Inc., Corning, NY, cat. 354248) for the first three passages. The 362531-283-R-J2-PDC and 782815-120-R-J1-PDC lines were cultured in 6C/Colon 1B media, which includes advanced DMEM/F-12 (Thermo Fisher Scientific, cat. 12634028), 10 mM HEPES (Thermo Fisher Scientific, cat. 15630080), 1X GlutaMAX supplement (Thermo Fisher Scientific, cat. 35050061), 0.1 mg/mL primocin (InvivoGen, San Diego, CA, cat. ant-pm-2), 10% defined fetal bovine serum, heat inactivated (HyClone Laboratories Inc., Logan, UT, cat. SH30070.03HI), 50% L-WRN conditioned media (ATCC, cat. CRL-3276), 1.25 mM N-Acetyl-L-cysteine (Sigma-Aldrich, cat. A9165), 10 mM nicotinamide (Sigma-Aldrich, cat. N0636), 1X B-27 supplement (Thermo Fisher Scientific, cat. 17504044), 1X N-2 supplement (Thermo Fisher Scientific, cat. 17502048), 50 ng/mL human EGF (Thermo Fisher Scientific, cat. PHG0311), and 10 microM Y-27632 dihydrochloride (Tocris Bioscience, cat. 1254). The K12877-001-R-J1-PDC line was cultured in 6I media, which includes all 6C/Colon 1B media plus 10 ng/mL human FGF-10 (PeproTech, cat. 100-26), 1 ng/mL human FGF-2 (PeproTech, cat. 100-18B), 1 µM prostaglandin E2 (Tocris Bioscience, cat. 2296), […] hydrocortisone (Sigma-Aldrich, cat. H4001), and […] bovine insulin (Sigma-Aldrich, cat. I6634). The K86415-001-R-J1-PDC line was cultured in 6D media, which includes all 6C/Colon 1B media components minus the L-WRN conditioned media. The 485176-168-R4-J1-PDC was cultured in PANC media, which includes all 6C/Colon 1B media plus 100 ng/mL human FGF-10 (PeproTech, cat. 100-26), 500 nM SB-431542 (Selleckchem, cat. S1067), and 10 nM gastrin (Tocris Bioscience, cat. 3006). […]

## CCc1c2c(nc3ccc(O)cc13)-c1cc3c(c(=O)n1C2)COC(=O)[C@]3(O)CC + C=CC(=O)N1CCN(c2nc(OCC3CCCN3C)nc3c(F)c(-c4nc(N)cc(C)c4C(F)(F)F)c(Cl)cc23)C(C)C1
Second compound 0.00316 µM
  IC50: 1.85 nM
Second compound 0.01 µM
  IC50: 1.94 nM
Second compound 0.0316 µM
  IC50: 1.99 nM
Second compound 0.1 µM
  IC50: 1.99 nM
Second compound 0.316 µM
  IC50: 2.03 nM
Second compound 1 µM
  IC50: 1.94 nM
Second compound 0.00316 µM, first compound 0.000949 µM
  viability, T/C: 106%
Second compound 0.00316 µM, first compound 0.003 µM
  viability, T/C: 9.93%
Second compound 0.00316 µM, first compound 0.00949 µM
  viability, T/C: 1.39%
Second compound 0.00316 µM, first compound 0.03 µM
  viability, T/C: 1.87%
Second compound 0.00316 µM, first compound 0.0949 µM
  viability, T/C: 2.37%
Second compound 0.00316 µM, first compound 0.3 µM
  viability, T/C: 1.53%
Second compound 0.01 µM, first compound 0.000949 µM
  viability, T/C: 101%
Second compound 0.01 µM, first compound 0.003 µM
  viability, T/C: 18.9%
Second compound 0.01 µM, first compound 0.00949 µM
  viability, T/C: 2.06%
Second compound 0.01 µM, first compound 0.03 µM
  viability, T/C: 3.03%
Second compound 0.01 µM, first compound 0.0949 µM
  viability, T/C: 2.18%
Second compound 0.01 µM, first compound 0.3 µM
  viability, T/C: 1.15%
Second compound 0.0316 µM, first compound 0.000949 µM
  viability, T/C: 103%
Second compound 0.0316 µM, first compound 0.003 µM
  viability, T/C: 20.9%
Second compound 0.0316 µM, first compound 0.00949 µM
  viability, T/C: 1.84%
Second compound 0.0316 µM, first compound 0.03 µM
  viability, T/C: 2.69%
Second compound 0.0316 µM, first compound 0.0949 µM
  viability, T/C: 2.18%
Second compound 0.0316 µM, first compound 0.3 µM
  viability, T/C: 0.6%
Second compound 0.1 µM, first compound 0.000949 µM
  viability, T/C: 104%
Second compound 0.1 µM, first compound 0.003 µM
  viability, T/C: 19.8%
Second compound 0.1 µM, first compound 0.00949 µM
  viability, T/C: 1.52%
Second compound 0.1 µM, first compound 0.03 µM
  viability, T/C: 1.4%
Second compound 0.1 µM, first compound 0.0949 µM
  viability, T/C: 1.53%
Second compound 0.1 µM, first compound 0.3 µM
  viability, T/C: 0.65%
Second compound 0.316 µM, first compound 0.000949 µM
  viability, T/C: 107%
Second compound 0.316 µM, first compound 0.003 µM
  viability, T/C: 20.4%
Second compound 0.316 µM, first compound 0.00949 µM
  viability, T/C: 1.92%
Second compound 0.316 µM, first compound 0.03 µM
  viability, T/C: 2.44%
Second compound 0.316 µM, first compound 0.0949 µM
  viability, T/C: 1.37%
Second compound 0.316 µM, first compound 0.3 µM
  viability, T/C: 0.74%
Second compound 1 µM, first compound 0.000949 µM
  viability, T/C: 116%
Second compound 1 µM, first compound 0.003 µM
  viability, T/C: 9.86%
Second compound 1 µM, first compound 0.00949 µM
  viability, T/C: 2.04%
Second compound 1 µM, first compound 0.03 µM
  viability, T/C: 2.87%
Second compound 1 µM, first compound 0.0949 µM
  viability, T/C: 1.52%
Second compound 1 µM, first compound 0.3 µM
  viability, T/C: 0.6%

## CC(=O)OC12COC1CC(O)C1(C)C(=O)C(O)C3=C(C)C(OC(=O)C(O)C(NC(=O)OC(C)(C)C)c4ccccc4)CC(O)(C(OC(=O)c4ccccc4)C21)C3(C)C (centres undefined) + C#Cc1c(F)ccc2cc(O)cc(-c3ncc4c(N5CC6CCC(C5)N6)nc(OCC56CCCN5CC(F)C6)nc4c3F)c12
Second compound 0.0316 µM
  IC50: < 31.6 nM
Second compound 0.1 µM
  IC50: < 31.6 nM
Second compound 0.316 µM
  IC50: < 31.6 nM
Second compound 1 µM
  IC50: < 31.6 nM
Second compound 3.16 µM
  IC50: < 31.6 nM
Second compound 10 µM
  IC50: < 31.6 nM
Second compound 0.0316 µM, first compound 0.0316 µM
  viability, T/C: 0.76%
Second compound 0.0316 µM, first compound 0.1 µM
  viability, T/C: 1.3%
Second compound 0.0316 µM, first compound 0.316 µM
  viability, T/C: 1.24%
Second compound 0.0316 µM, first compound 1 µM
  viability, T/C: 1.01%
Second compound 0.0316 µM, first compound 3.16 µM
  viability, T/C: 1.67%
Second compound 0.0316 µM, first compound 10 µM
  viability, T/C: 0.89%
Second compound 0.1 µM, first compound 0.0316 µM
  viability, T/C: 1.76%
Second compound 0.1 µM, first compound 0.1 µM
  viability, T/C: 0.93%
Second compound 0.1 µM, first compound 0.316 µM
  viability, T/C: 1.5%
Second compound 0.1 µM, first compound 1 µM
  viability, T/C: 1.51%
Second compound 0.1 µM, first compound 3.16 µM
  viability, T/C: 1.27%
Second compound 0.1 µM, first compound 10 µM
  viability, T/C: 0.89%
Second compound 0.316 µM, first compound 0.0316 µM
  viability, T/C: 1.1%
Second compound 0.316 µM, first compound 0.1 µM
  viability, T/C: 0.78%
Second compound 0.316 µM, first compound 0.316 µM
  viability, T/C: 1.16%
Second compound 0.316 µM, first compound 1 µM
  viability, T/C: 1.88%
Second compound 0.316 µM, first compound 3.16 µM
  viability, T/C: 1.5%
Second compound 0.316 µM, first compound 10 µM
  viability, T/C: 0.79%
Second compound 1 µM, first compound 0.0316 µM
  viability, T/C: 1.5%
Second compound 1 µM, first compound 0.1 µM
  viability, T/C: 0.8%
Second compound 1 µM, first compound 0.316 µM
  viability, T/C: 1.05%
Second compound 1 µM, first compound 1 µM
  viability, T/C: 2.04%
Second compound 1 µM, first compound 3.16 µM
  viability, T/C: 1.33%
Second compound 1 µM, first compound 10 µM
  viability, T/C: 0.88%
Second compound 3.16 µM, first compound 0.0316 µM
  viability, T/C: 1.91%
Second compound 3.16 µM, first compound 0.1 µM
  viability, T/C: 0.99%
Second compound 3.16 µM, first compound 0.316 µM
  viability, T/C: 1.37%
Second compound 3.16 µM, first compound 1 µM
  viability, T/C: 0.71%
Second compound 3.16 µM, first compound 3.16 µM
  viability, T/C: 1.08%
Second compound 3.16 µM, first compound 10 µM
  viability, T/C: 0.76%
Second compound 10 µM, first compound 0.0316 µM
  viability, T/C: 1.78%
Second compound 10 µM, first compound 0.1 µM
  viability, T/C: 0.88%
Second compound 10 µM, first compound 0.316 µM
  viability, T/C: 1.86%
Second compound 10 µM, first compound 1 µM
  viability, T/C: 1.55%
Second compound 10 µM, first compound 3.16 µM
  viability, T/C: 1.23%
Second compound 10 µM, first compound 10 µM
  viability, T/C: 0.77%
